In ChEMBL document CHEMBL4483862, “Open-source discovery of chemical leads for next-generation chemoprotective antimalarials” (2018) one finds IC50 and IC90 data, which are given here for 32 compounds.

This assay concerns Plasmodium berghei. Kind of assay: Luciferase/luciferin-expressing antifolate-resistant parasites were used to infect a culture of HepG2 cells that were pre-incubated with compounds. Infected hepatocytes emit light due to the luciferase reaction. Assay results are presented as the percent inhibition of light emission compared to control. […]. The note with it: sporozoite; for IC90: read-out: LUCIFERASE INFECTION ASSAY - IC90. The class given is functional.

Setting [1] is: read-out: LUCIFERASE INFECTION ASSAY - IC50.

With `Clc1ccc2nc(-c3cnn(-c4ccccc4)c3)[nH]c2c1`, the IC90 came to 7.38 µM. Besides, for the setting “HEPG2TOX_HILL_SLOPE 1.09, HEPG2TOX_R_SQUARED 0.847, PBLUC_HILL_SLOPE 23.0, 2.49, PBLUC_R_SQUARED 0.431, 0.566, read-out: LUCIFERASE INFECTION ASSAY - IC50”, the IC50 stood at 5.39 µM.
For the compound `CC(=O)c1cccc(-c2cnc3c(Nc4cccc(OC(F)(F)C(F)F)c4)nccn23)c1`, the IC90 was 6 µM. For the same compound, the IC50 (HEPG2TOX_HILL_SLOPE 2.66, HEPG2TOX_R_SQUARED 0.947, PBLUC_HILL_SLOPE 1.76, PBLUC_R_SQUARED 0.616, read-out: LUCIFERASE INFECTION ASSAY - IC50) stood at 1.72 µM.
With `COc1cc(Nc2ncc3c(n2)CCN(C(=O)Nc2ccc(F)c(Cl)c2)C3)cc(OC)c1OC`, the IC90 is more than 6.76 µM. Further, the IC50 (HEPG2TOX_HILL_SLOPE 3.56, HEPG2TOX_R_SQUARED 0.576, PBLUC_HILL_SLOPE 6.46, PBLUC_R_SQUARED 0.101, read-out: LUCIFERASE INFECTION ASSAY - IC50) came to 5.03 µM.
Consider `CCN1C(=O)N(Cc2cccc(OC)c2)C(=O)C12CCN(Cc1cc3ccccc3s1)CC2`, for which the IC90 is more than 7.12 µM. The IC50 (HEPG2TOX_HILL_SLOPE 3.09, HEPG2TOX_R_SQUARED 0.881, PBLUC_HILL_SLOPE 9.24, PBLUC_R_SQUARED 0.267, read-out: LUCIFERASE INFECTION ASSAY - IC50) amounted to 6.06 µM.
Turning to `N#Cc1ccc(NC(=O)Nc2ccc(C#N)cc2)cc1`, the IC90 is 4.08 µM. Moreover, under setting [1], the IC50 was 3.52 µM.
Take `O=C(Nc1ncc(Cc2ccccc2)s1)c1ccc2nc[nH]c2c1`: the IC90 is more than 10 µM. Also, under “HEPG2TOX_HILL_SLOPE 3.11, HEPG2TOX_R_SQUARED 0.961, PBLUC_HILL_SLOPE 3.02, PBLUC_R_SQUARED 0.464, read-out: LUCIFERASE INFECTION ASSAY - IC50”, the IC50 worked out at 5.71 µM.
For `CCCNC(=O)c1c(NC(=O)c2cc(OC)cc(OC)c2)nc2ccccn12`, the IC90 is more than 8.63 µM. In addition, the IC50 (PBLUC_HILL_SLOPE 11.4, PBLUC_R_SQUARED 0.597, read-out: LUCIFERASE INFECTION ASSAY - IC50) turned out to be 7.32 µM.
Consider `CSc1ccccc1N1C(=O)C=CC1=O`, for which the IC90 stood at 10.8 µM. The IC50 (FFLUC_HILL_SLOPE 3.57, FFLUC_R_SQUARED 0.584, HEPG2TOX_HILL_SLOPE 8.7, HEPG2TOX_R_SQUARED 0.127, PBLUC_HILL_SLOPE 6.46, PBLUC_R_SQUARED 0.572, read-out: LUCIFERASE INFECTION ASSAY - IC50) was 7.7 µM.
Turning to `COc1ccc(NC(=O)c2ccc(C)c(F)c2)cc1OCc1cccnc1`, the IC90 was more than 10 µM. Under setting [1], the IC50 was 6.13 µM.
On to `Cc1c(C(=O)N2CCN(c3cc(C#N)ccn3)CC2)[nH]c2c1C(=O)CCC2`, for which the IC90 is more than 10 µM. Also, the IC50 (HEPG2TOX_HILL_SLOPE 7.54, HEPG2TOX_R_SQUARED 0.56, read-out: LUCIFERASE INFECTION ASSAY - IC50) is more than 10 µM.
Regarding `O=S(=O)(NC1CCCCCCC1)c1ccc(S(=O)(=O)C(F)F)cc1`, the IC90 is more than 10 µM. Besides, where the note is “HEPG2TOX_HILL_SLOPE 11.1, HEPG2TOX_R_SQUARED 0.22, read-out: LUCIFERASE INFECTION ASSAY - IC50”, the IC50 is more than 10 µM.
Consider `FC(F)(F)c1cc(/C=N/Nc2c(Cl)cc(C(F)(F)F)cc2Cl)cc(C(F)(F)F)c1`, for which the IC90 was determined as 6.93 µM. In addition, the IC50 (HEPG2TOX_HILL_SLOPE 9.76, HEPG2TOX_R_SQUARED 0.862, PBLUC_HILL_SLOPE 9.4, PBLUC_R_SQUARED 0.388, read-out: LUCIFERASE INFECTION ASSAY - IC50) amounted to 5.49 µM.
As for `O=C(NC1CC1)c1ccc(CN(C2CC2)S(=O)(=O)c2ccccc2[N+](=O)[O-])cc1`, the IC90 came to 3.74 µM. Also, the IC50 under setting [1] was 3.41 µM.
On to `CSc1sc(C(=O)N/N=C/c2ccccc2Cl)c2c1C(O)CCC2` (centres undefined), for which the IC90 was more than 8.66 µM. Also, the IC50 (HEPG2TOX_HILL_SLOPE 0.679, HEPG2TOX_R_SQUARED 0.968, PBLUC_HILL_SLOPE 1.34, PBLUC_R_SQUARED 0.516, read-out: LUCIFERASE INFECTION ASSAY - IC50) was 2.1 µM.
`c1ccc(CNc2nc3cnc(-c4ccc5ccccc5c4)cc3[nH]2)cc1`: the IC90 is more than 10 µM. Also, the IC50 (HEPG2TOX_HILL_SLOPE 2.88, HEPG2TOX_R_SQUARED 0.737, PBLUC_HILL_SLOPE 2.3, PBLUC_R_SQUARED 0.668, read-out: LUCIFERASE INFECTION ASSAY - IC50) was found to be 4.89 µM.
`c1csc(-c2cn3c(-c4ccncc4)cnc3cn2)c1`: the IC90 is more than 11.9 µM. Further, the IC50 (PBLUC_HILL_SLOPE 5.41, PBLUC_R_SQUARED 0.452, read-out: LUCIFERASE INFECTION ASSAY - IC50) worked out at 10.5 µM.
In the case of `CCCCCCc1ccc(-c2csc(NC(=O)CSc3nnc(C(F)(F)F)n3C)n2)cc1`, the IC90 was more than 10 µM. Moreover, the IC50 under setting [1] was more than 10 µM.
As to `FC(F)(F)c1cc(N=C(C/C=N/c2cc(C(F)(F)F)cc(C(F)(F)F)c2)c2ccc(Cl)cc2)cc(C(F)(F)F)c1`, the IC90 worked out at 0.673 µM. Further, for the setting “FFLUC_HILL_SLOPE 1.3, FFLUC_R_SQUARED 0.132, PBLUC_HILL_SLOPE 15.7, PBLUC_R_SQUARED 0.5, read-out: LUCIFERASE INFECTION ASSAY - IC50”, the IC50 worked out at 0.585 µM.
Take `CC(C)(C)NC(=S)Nc1cc(C(F)(F)F)cc(C(F)(F)F)c1`: the IC90 was more than 9.58 µM. Under “PBLUC_HILL_SLOPE 27.4, PBLUC_R_SQUARED 0.229, read-out: LUCIFERASE INFECTION ASSAY - IC50”, the IC50 was found to be 9.58 µM.
As for `O=c1c(Cl)c(Cl)cnn1-c1cc(Cl)cc(Cl)c1`, the IC90 was 4.28 µM. Further, the 50% inhibitory concentration (IC50) (FFLUC_HILL_SLOPE 2.56, FFLUC_R_SQUARED 0.592, HEPG2TOX_HILL_SLOPE 5.14, HEPG2TOX_R_SQUARED 0.846, PBLUC_HILL_SLOPE 13.3, PBLUC_R_SQUARED 0.218, read-out: LUCIFERASE INFECTION ASSAY - IC50) stood at 3.63 µM.
For the compound `COc1cc(N2C(=O)C=CC2=O)cc(OC)c1OC`, the IC90 was more than 12.5 µM. In addition, where the note is “HEPG2TOX_HILL_SLOPE 7.92, HEPG2TOX_R_SQUARED 0.512, PBLUC_HILL_SLOPE 9.52, PBLUC_R_SQUARED 0.0663, read-out: LUCIFERASE INFECTION ASSAY - IC50”, the IC50 was more than 12.5 µM.
As to `c1cnc(N2CCN(CCCNc3ncnc4sccc34)CC2)nc1`, the IC90 is more than 10 µM. The IC50 (FFLUC_HILL_SLOPE 14.8, FFLUC_R_SQUARED 0.258, HEPG2TOX_HILL_SLOPE 2.5, HEPG2TOX_R_SQUARED 0.964, PBLUC_HILL_SLOPE 9.27, PBLUC_R_SQUARED 0.473, read-out: LUCIFERASE INFECTION ASSAY - IC50) is 8.5 µM.
With `Cc1cc(NC(=O)c2cc(-c3ccc(Br)cc3)nc3ccccc23)n(-c2ccc([N+](=O)[O-])cc2)n1`, the IC90 was 1.17 µM. For the same compound, the IC50 (HEPG2TOX_HILL_SLOPE 1.65, HEPG2TOX_R_SQUARED 0.917, PBLUC_HILL_SLOPE 13.2, PBLUC_R_SQUARED 0.485, read-out: LUCIFERASE INFECTION ASSAY - IC50) came to 0.991 µM.
For `COCCNC(=O)c1ccc(C2(CNc3ccc(OC)c(OC)c3)CC2)cc1`, the IC90 came to 1.89 µM. Moreover, under “FFLUC_HILL_SLOPE 16.1, FFLUC_R_SQUARED 0.266, PBLUC_HILL_SLOPE 1.26, PBLUC_R_SQUARED 0.621, read-out: LUCIFERASE INFECTION ASSAY - IC50”, the IC50 was 0.332 µM.
With `Oc1c(C(c2ccccc2Cl)N2CCCC2)ccc2cccnc12` (centres undefined), the IC90 came out at 4.97 µM. Moreover, the IC50 (HEPG2TOX_HILL_SLOPE 12.7, HEPG2TOX_R_SQUARED 0.0314, PBLUC_HILL_SLOPE 8.39, PBLUC_R_SQUARED 0.486, read-out: LUCIFERASE INFECTION ASSAY - IC50) is 3.83 µM.
On to `Brc1ccc(-[n+]2nc(-c3ccccc3)nn2-c2nn[nH]n2)cc1`, for which the IC90 was determined as 4.45 µM. Also, the IC50 (HEPG2TOX_HILL_SLOPE 1.48, HEPG2TOX_R_SQUARED 0.648, PBLUC_HILL_SLOPE 2.42, 13.8, PBLUC_R_SQUARED 0.208, 0.342, read-out: LUCIFERASE INFECTION ASSAY - IC50) came to 2.56 µM.
Turning to `Cc1nccc(-c2ccc(NC(=O)c3cc(S(=O)(=O)NCc4ccccc4)ccc3C)cc2)n1`, the IC90 was more than 10 µM. Further, the IC50 (PBLUC_HILL_SLOPE 8.64, PBLUC_R_SQUARED 0.681, read-out: LUCIFERASE INFECTION ASSAY - IC50) is 8.33 µM.
Turning to `CC1CCc2[nH]c3ccc(C(=O)NCc4ccccc4CN(C)C)cc3c2C1` (centres undefined), the IC90 is more than 10 µM. Besides, the IC50 (HEPG2TOX_HILL_SLOPE 12.7, HEPG2TOX_R_SQUARED 0.279, PBLUC_HILL_SLOPE 14.5, PBLUC_R_SQUARED 0.467, read-out: LUCIFERASE INFECTION ASSAY - IC50) came out at 9.09 µM.
With `O=C(NC1CC1)c1ccc(N2CCN(C(c3ccc(F)cc3)c3ccc(F)cc3)CC2)nc1`, the IC90 was more than 10 µM. Further, the IC50 (PBLUC_HILL_SLOPE 2.42, PBLUC_R_SQUARED 0.524, read-out: LUCIFERASE INFECTION ASSAY - IC50) came out at 4.87 µM.
`CN(C1=C(NC(=O)c2ccccc2)C(=O)c2ccccc2C1=O)C1CCS(=O)(=O)C1` (centres undefined): the IC90 was more than 10 µM. Also, for the setting “PBLUC_HILL_SLOPE 12.4, PBLUC_R_SQUARED 0.0349, read-out: LUCIFERASE INFECTION ASSAY - IC50”, the half-inhibitory concentration (IC50) stood at 9.32 µM.
`C/C(=N\Nc1cccc([N+](=O)[O-])c1)c1cc2ccccc2o1`: the IC90 is 4.09 µM. Moreover, the IC50 (PBLUC_HILL_SLOPE 10.9, PBLUC_R_SQUARED 0.683, read-out: LUCIFERASE INFECTION ASSAY - IC50) was determined as 3.34 µM.
As to `O=C(OCc1cc(=O)oc2cc(O)ccc12)c1ccc(Cl)c(S(=O)(=O)N2CCCCCC2)c1`, the IC90 is more than 10 µM. Besides, the IC50 (PBLUC_HILL_SLOPE 24.9, PBLUC_R_SQUARED 0.0553, read-out: LUCIFERASE INFECTION ASSAY - IC50) came to 9.36 µM.
